Results from ChEMBL document CHEMBL1147945, “R-isomers of Arg-Gly-Asp (RGD) mimics as potent alphavbeta3 inhibitors” (Bioorg Med Chem, 2007).

Assays:
Integrin alpha-V/beta-3 = Integrin alpha-V/beta-3 (Homo sapiens, UniProt P05106+P06756); assay: Inhibition of alphaVbeta3 integrin receptor expressed in human 293 cells; format: cell-based, HEK293
Integrin alpha-V/beta-6 [1] = target: T1, Integrin alpha-V/beta-6 (Homo sapiens, UniProt P06756+P18564); assay: Inhibition of alpha-V-beta-6 integrin receptor in human HT29 cells; format: cell-based, HT-29
Integrin alpha-V/beta-6 [2] = target: T1, Integrin alpha-V/beta-6; assay: Inhibition of alpha-V-beta-6 integrin receptor in human 293 cells; format: cell-based, HEK293

Sequence of Integrin alpha-V/beta-3 (P05106 27-788 limits assumed): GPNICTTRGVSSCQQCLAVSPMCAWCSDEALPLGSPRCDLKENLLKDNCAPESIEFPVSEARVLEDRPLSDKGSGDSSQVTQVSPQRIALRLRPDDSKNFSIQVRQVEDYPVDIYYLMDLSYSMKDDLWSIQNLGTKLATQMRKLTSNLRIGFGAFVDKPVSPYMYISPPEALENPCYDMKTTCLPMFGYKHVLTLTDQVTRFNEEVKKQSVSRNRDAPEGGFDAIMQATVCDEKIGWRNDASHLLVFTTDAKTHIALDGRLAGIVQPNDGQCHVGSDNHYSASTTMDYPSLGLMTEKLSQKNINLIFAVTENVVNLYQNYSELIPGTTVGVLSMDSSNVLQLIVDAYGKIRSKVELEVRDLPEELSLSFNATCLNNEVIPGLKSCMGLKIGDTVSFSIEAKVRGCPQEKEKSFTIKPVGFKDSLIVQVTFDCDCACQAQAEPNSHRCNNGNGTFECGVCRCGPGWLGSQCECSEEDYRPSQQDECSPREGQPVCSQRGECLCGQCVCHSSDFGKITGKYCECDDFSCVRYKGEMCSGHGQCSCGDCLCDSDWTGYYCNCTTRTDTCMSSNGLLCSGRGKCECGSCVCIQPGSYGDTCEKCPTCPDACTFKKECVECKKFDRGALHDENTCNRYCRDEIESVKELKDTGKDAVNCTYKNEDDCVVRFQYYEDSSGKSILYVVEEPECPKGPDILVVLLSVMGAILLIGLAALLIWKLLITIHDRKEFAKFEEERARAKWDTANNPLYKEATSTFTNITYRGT
Sequence of Integrin alpha-V/beta-3 (P06756 31-889 limits assumed): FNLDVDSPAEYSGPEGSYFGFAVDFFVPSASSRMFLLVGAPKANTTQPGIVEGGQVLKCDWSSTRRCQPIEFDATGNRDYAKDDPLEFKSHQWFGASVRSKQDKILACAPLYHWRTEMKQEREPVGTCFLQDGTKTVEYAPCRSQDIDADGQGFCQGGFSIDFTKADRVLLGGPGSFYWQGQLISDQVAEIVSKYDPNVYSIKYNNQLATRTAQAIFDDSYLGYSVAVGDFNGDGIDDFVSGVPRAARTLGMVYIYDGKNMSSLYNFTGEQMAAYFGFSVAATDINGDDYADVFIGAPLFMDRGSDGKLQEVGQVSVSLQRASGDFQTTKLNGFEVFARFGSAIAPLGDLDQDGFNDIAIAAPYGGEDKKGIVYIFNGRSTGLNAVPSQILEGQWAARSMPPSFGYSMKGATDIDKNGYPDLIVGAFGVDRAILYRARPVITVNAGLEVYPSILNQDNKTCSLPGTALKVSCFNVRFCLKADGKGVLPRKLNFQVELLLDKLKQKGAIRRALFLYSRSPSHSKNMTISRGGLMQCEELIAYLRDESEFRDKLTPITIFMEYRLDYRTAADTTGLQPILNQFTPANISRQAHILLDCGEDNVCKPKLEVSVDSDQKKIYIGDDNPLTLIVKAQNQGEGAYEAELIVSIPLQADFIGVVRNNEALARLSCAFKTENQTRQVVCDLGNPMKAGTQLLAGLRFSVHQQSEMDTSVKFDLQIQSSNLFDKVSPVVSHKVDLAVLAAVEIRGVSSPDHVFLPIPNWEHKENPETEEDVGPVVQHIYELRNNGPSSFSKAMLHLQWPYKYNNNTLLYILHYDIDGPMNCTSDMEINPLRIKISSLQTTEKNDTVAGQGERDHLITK
Sequence of Integrin alpha-V/beta-3 (P06756 891-1048 limits assumed): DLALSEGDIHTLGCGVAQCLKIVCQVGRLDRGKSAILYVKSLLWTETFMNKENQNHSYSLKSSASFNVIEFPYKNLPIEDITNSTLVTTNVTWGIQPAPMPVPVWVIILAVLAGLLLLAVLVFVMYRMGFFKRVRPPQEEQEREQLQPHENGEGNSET
T1 sequence (P06756 31-889 limits assumed): as the sequence (P06756 31-889 limits assumed) above
T1 sequence (P06756 891-1048 limits assumed): as the sequence (P06756 891-1048 limits assumed) above
T1 sequence (P18564 22-788 limits assumed): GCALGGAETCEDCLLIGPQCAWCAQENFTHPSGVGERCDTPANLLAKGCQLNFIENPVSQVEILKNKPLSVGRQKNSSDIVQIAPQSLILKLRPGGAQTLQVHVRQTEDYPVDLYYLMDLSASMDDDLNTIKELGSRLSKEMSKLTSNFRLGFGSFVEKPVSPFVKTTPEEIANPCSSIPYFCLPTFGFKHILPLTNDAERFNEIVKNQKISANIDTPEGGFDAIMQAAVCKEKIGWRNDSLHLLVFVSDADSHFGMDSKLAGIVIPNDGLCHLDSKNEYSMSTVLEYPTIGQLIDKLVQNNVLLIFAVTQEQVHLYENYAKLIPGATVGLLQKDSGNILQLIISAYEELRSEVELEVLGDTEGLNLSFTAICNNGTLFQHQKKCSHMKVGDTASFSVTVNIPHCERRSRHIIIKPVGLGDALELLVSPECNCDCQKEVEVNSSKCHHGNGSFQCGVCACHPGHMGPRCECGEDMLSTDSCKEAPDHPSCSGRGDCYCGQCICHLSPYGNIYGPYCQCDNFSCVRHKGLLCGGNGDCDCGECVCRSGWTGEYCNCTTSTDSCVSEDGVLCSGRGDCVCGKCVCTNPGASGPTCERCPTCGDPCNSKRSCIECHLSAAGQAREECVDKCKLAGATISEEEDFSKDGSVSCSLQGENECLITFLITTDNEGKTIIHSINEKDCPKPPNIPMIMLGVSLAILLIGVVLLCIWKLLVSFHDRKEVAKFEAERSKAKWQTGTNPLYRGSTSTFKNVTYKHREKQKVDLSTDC

| SMILES | IC50 (Integrin alpha-V/beta-3) [nM] | IC50 (Integrin alpha-V/beta-6 [1]) [nM] | IC50 (Integrin alpha-V/beta-6 [2]) [nM] |
| --- | --- | --- | --- |
| O=C(O)C[C@@H](NC(=O)CNC(=O)c1cncc(NC2=NCC(F)CN2)c1)c1cc(Cl)cc(Cl)c1O (stereo partly drawn) | 1 | 14 |  |
| O=C(O)C[C@@H](NC(=O)CNC(=O)c1cc(O)cc(NC2=NCC(O)CN2)c1)c1cc(Br)cc(Br)c1O (stereo partly drawn) | 21 | 96 |  |
| O=C(O)C[C@@H](NC(=O)CNC(=O)c1cccc(NC2=NCCCN2)c1)c1cc(Cl)cc(I)c1O | 7 | 10000 |  |
| O=C(O)C[C@@H](NC(=O)CNC(=O)c1cncc(NC2=NCC(O)CN2)c1)c1cc(Br)cc(Cl)c1O (stereo partly drawn) | 1 | 22800 |  |
| O=C(O)C[C@H](NC(=O)CNC(=O)c1cc(O)cc(NC2=NCC(O)CN2)c1)c1cc(Cl)cc(Br)c1O (stereo partly drawn) | 2.6 |  |  |
| O=C(O)C[C@H](NC(=O)CNC(=O)c1cc(O)cc(NC2=NCCCN2)c1)c1cc(Cl)cc(Cl)c1O | 0.9 |  |  |
| O=C(O)C[C@@H](NC(=O)CNC(=O)c1cc(O)cc(NC2=NCC(F)CN2)c1)c1cc(Br)cc(Cl)c1O (stereo partly drawn) | 3 | 71 |  |
| O=C(O)C[C@@H](NC(=O)CNC(=O)c1cc(O)cc(NC2=NCCCN2)c1)c1cc(Cl)cc(I)c1O | 9 |  | 1780 |
| Cc1cc(C)c(O)c([C@@H](CC(=O)O)NC(=O)CNC(=O)c2cc(N)cc(NC3=NCC(F)CN3)c2)c1 (stereo partly drawn) | 10 | 65 |  |
| O=C(O)C[C@@H](NC(=O)CNC(=O)c1cc(O)cc(NC2=NCC(F)(F)CN2)c1)c1cc(Cl)cc(Br)c1O | 5 | 7260 |  |
| O=C(O)C[C@@H](NC(=O)CNC(=O)c1cncc(NC2=NCC(O)CN2)c1)c1cc(Cl)cc(Br)c1O (stereo partly drawn) | 1 |  | 615 |
| Nc1cc(NC2=NCC(F)CN2)cc(C(=O)NCC(=O)N[C@H](CC(=O)O)c2cc(Cl)cc(Br)c2O)c1 (stereo partly drawn) | 3 | 3440 |  |
| O=C(O)C[C@H](NC(=O)CNC(=O)c1cc(O)cc(NC2=NCCCN2)c1)c1cc(Cl)cc(Br)c1O | 2 |  |  |
| Nc1cc(NC2=NCC(O)CN2)cc(C(=O)NCC(=O)N[C@H](CC(=O)O)c2cc(Cl)cc(Br)c2O)c1 (stereo partly drawn) | 22 | 8620 |  |
| O=C(O)C[C@@H](NC(=O)CNC(=O)c1cccc(NC2=NCC(O)CN2)c1)c1cc(Cl)cc(Cl)c1O (stereo partly drawn) | 0.7 |  | 20 |
| O=C(O)C[C@H](NC(=O)CNC(=O)c1cccc(NC2=NCC(O)CN2)c1)c1cc(Cl)cc(Br)c1O (stereo partly drawn) | 0.6 |  |  |
| O=C(O)C[C@H](NC(=O)CNC(=O)c1cc(O)cc(N=C2NCC(F)(F)CN2)c1)c1cc(Cl)cc(Br)c1O | 5 |  |  |
| Nc1cc(NC2=NCC(O)CN2)cc(C(=O)NCC(=O)N[C@H](CC(=O)O)c2cc(Cl)cc(I)c2O)c1 (stereo partly drawn) | 0.3 | 12300 |  |
| O=C(O)C[C@@H](NC(=O)CNC(=O)c1cncc(NC2=NCC(O)CN2)c1)c1cc(Br)cc(Br)c1O (stereo partly drawn) | 2 | 1760 |  |
| O=C(O)C[C@H](NC(=O)CNC(=O)c1cncc(NC2=NCC(O)CN2)c1)c1cc(Br)cc(Cl)c1O (stereo partly drawn) | 0.3 |  |  |

| SMILES | IC50 (Integrin alpha-V/beta-3) [nM] | IC50 (Integrin alpha-V/beta-6 [1]) [nM] | IC50 (Integrin alpha-V/beta-6 [2]) [nM] |
| --- | --- | --- | --- |
| O=C(O)C[C@@H](NC(=O)CNC(=O)c1cccc(NC2=NCC(O)CN2)c1)c1cc(Br)cc(Cl)c1O (stereo partly drawn) | 8 | 48 |  |
| O=C(O)C[C@@H](NC(=O)CNC(=O)c1cc(O)cc(NC2=NCC(F)CN2)c1)c1cc(Br)cc(I)c1 (stereo partly drawn) | 13 | 11 |  |
| O=C(O)C[C@@H](NC(=O)CNC(=O)c1cc(O)cc(NC2=NCC(F)CN2)c1)c1cc(Br)cc(Br)c1 (stereo partly drawn) | 5 | 20 |  |
| O=C(O)C[C@@H](NC(=O)CNC(=O)c1cccc(NC2=NCC(F)CN2)c1)c1cc(Br)cc(Cl)c1O (stereo partly drawn) | 2 | 25 |  |
| O=C(O)C[C@H](NC(=O)CNC(=O)c1cccc(NC2=NCC(F)CN2)c1)c1cc(Cl)cc(Br)c1O (stereo partly drawn) | 0.2 |  |  |
| O=C(O)C[C@H](NC(=O)CNC(=O)c1cccc(NC2=NCC(O)CN2)c1)c1cc(Cl)cc(Cl)c1O (stereo partly drawn) | 0.3 |  |  |
| O=C(O)C[C@@H](NC(=O)CNC(=O)c1cc(O)cc(NC2=NCC(O)CN2)c1)c1cc(Cl)cc(I)c1O (stereo partly drawn) | 3 | 631 |  |
| O=C(O)C[C@@H](NC(=O)CNC(=O)c1cccc(NC2=NCCCN2)c1)c1cc(Cl)cc(Cl)c1O | 4 | 24 |  |
| O=C(O)C[C@@H](NC(=O)CNC(=O)c1cc(O)cc(NC2=NCC(F)CN2)c1)c1cc(Cl)cc(Cl)c1O (stereo partly drawn) | 1 | 42 |  |
| O=C(O)C[C@@H](NC(=O)CNC(=O)c1cccc(N=C2NCC(F)CN2)c1)c1cc(Cl)cc(Cl)c1O (stereo partly drawn) | 1 | 16 |  |
| O=C(O)C[C@@H](NC(=O)CNC(=O)c1cc(O)cc(NC2=NCCCN2)c1)c1cc(Br)cc(Cl)c1O | 10 | 151 |  |
| Cc1cc(C)c(O)c([C@@H](CC(=O)O)NC(=O)CNC(=O)c2cc(O)cc(NC3=NCC(O)CN3)c2)c1 (stereo partly drawn) | 54 | 118 |  |
| O=C(O)C[C@@H](NC(=O)CNC(=O)c1cccc(NC2=NCCCN2)c1)c1cc(Br)cc(Br)c1O | 4 | 3210 |  |
| O=C(O)C[C@@H](NC(=O)CNC(=O)c1cc(O)cc(NC2=NCCCN2)c1)c1cc(Cl)cc(Cl)c1O | 3 | 3000 |  |
| O=C(O)C[C@H](NC(=O)CNC(=O)c1cccc(NC2=NCCCN2)c1)c1cc(Cl)cc(Br)c1O | 2 |  |  |
| O=C(O)C[C@@H](NC(=O)CNC(=O)c1cc(O)cc(NC2=NCC(O)CN2)c1)c1cc(Br)cc(Cl)c1O (stereo partly drawn) | 7 | 588 |  |
| O=C(O)C[C@@H](NC(=O)CNC(=O)c1cccc(NC2=NCCCN2)c1)c1cc(Br)cc(Cl)c1O | 8 | 88 |  |
| Nc1cc(NC2=NCC(O)CN2)cc(C(=O)NCC(=O)N[C@H](CC(=O)O)c2cc(Br)cc(Cl)c2O)c1 (stereo partly drawn) | 33 | 216 |  |
| Cc1cc(Cl)cc([C@H](CC(=O)O)NC(=O)CNC(=O)c2cc(O)cc(NC3=NCC(O)CN3)c2)c1O (stereo partly drawn) | 0.2 |  |  |
| Nc1cc(NC2=NCC(O)CN2)cc(C(=O)NCC(=O)N[C@H](CC(=O)O)c2cc(Br)cc(Br)c2O)c1 (stereo partly drawn) | 7 | 2790 |  |

| SMILES | IC50 (Integrin alpha-V/beta-3) [nM] | IC50 (Integrin alpha-V/beta-6 [1]) [nM] | IC50 (Integrin alpha-V/beta-6 [2]) [nM] |
| --- | --- | --- | --- |
| O=C(O)C[C@H](NC(=O)CNC(=O)c1cccc(N=C2NCC(O)CN2)c1)c1cc(Cl)cc(I)c1O (stereo partly drawn) | 1.6 |  |  |
| O=C(O)C[C@@H](NC(=O)CNC(=O)c1cc(O)cc(NC2=NCCCN2)c1)c1cc(Cl)cc(Br)c1O | 10 | 2740 |  |
| O=C(O)C[C@H](NC(=O)CNC(=O)c1cncc(NC2=NCC(F)CN2)c1)c1cc(Cl)cc(Br)c1O (stereo partly drawn) | 0.4 |  |  |
| O=C(O)C[C@@H](NC(=O)CNC(=O)c1cccc(NC2=NCC(O)CN2)c1)c1cc(Br)cc(Br)c1O (stereo partly drawn) | 10 | 25 |  |
| O=C(O)C[C@H](NC(=O)CNC(=O)c1cc(O)cc(NC2=NCC(O)CN2)c1)c1cc(Cl)cc(I)c1O (stereo partly drawn) | 6.4 |  |  |
| Cc1cc(C)c(O)c([C@H](CC(=O)O)NC(=O)CNC(=O)c2cc(O)cc(NC3=NCC(O)CN3)c2)c1 (stereo partly drawn) | 1 |  |  |
| O=C(O)C[C@H](NC(=O)CNC(=O)c1cc(O)cc(N=C2NCC(O)CN2)c1)c1cc(Cl)cc(Cl)c1O (stereo partly drawn) | 0.9 |  |  |
| Cc1cc(C)cc([C@@H](CC(=O)O)NC(=O)CNC(=O)c2cc(O)cc(NC3=NCC(F)CN3)c2)c1 (stereo partly drawn) | 56 | 49 |  |
| O=C(O)C[C@@H](NC(=O)CNC(=O)c1cccc(NC2=NCC(O)CN2)c1)c1cc(Cl)cc(Br)c1O (stereo partly drawn) | 5 | 3530 |  |
| O=C(O)C[C@@H](NC(=O)CNC(=O)c1cccc(NC2=NCCCN2)c1)c1cc(Cl)cc(Br)c1O | 5 | 6540 |  |
| Cc1cc(Cl)cc([C@@H](CC(=O)O)NC(=O)CNC(=O)c2cc(O)cc(NC3=NCC(O)CN3)c2)c1O (stereo partly drawn) | 18 | 688 |  |
| O=C(O)C[C@@H](NC(=O)CNC(=O)c1cc(O)cc(N=C2NCCCN2)c1)c1cc(Br)cc(Br)c1O | 20 | 204 |  |
| O=C(O)C[C@@H](NC(=O)CNC(=O)c1cncc(NC2=NCC(F)CN2)c1)c1cc(Cl)cc(Br)c1O (stereo partly drawn) | 0.7 | 1830 |  |
| O=C(O)C[C@@H](NC(=O)CNC(=O)c1cc(O)cc(NC2=NCC(F)CN2)c1)c1cc(Cl)cc(Br)c1 (stereo partly drawn) | 5 | 57 |  |
| O=C(O)C[C@@H](NC(=O)CNC(=O)c1cc(O)cc(NC2=NCC(F)CN2)c1)c1cc(Cl)cc(Cl)c1 (stereo partly drawn) | 11 | 40 |  |
| O=C(O)C[C@H](NC(=O)CNC(=O)c1cc(O)cc(N=C2NCC(O)CN2)c1)c1cc(Br)cc(Cl)c1O (stereo partly drawn) | 2.7 |  |  |
| O=C(O)C[C@@H](NC(=O)CNC(=O)c1cc(O)cc(NC2=NCC(F)CN2)c1)c1cc(Br)cc(Br)c1O (stereo partly drawn) | 3 | 3420 |  |
| O=C(O)C[C@@H](NC(=O)CNC(=O)c1cccc(NC2=NCC(O)CN2)c1)c1cc(Cl)cc(I)c1O (stereo partly drawn) | 1 | 11500 |  |
| O=C(O)C[C@@H](NC(=O)CNC(=O)c1cccc(N=C2NCC(F)CN2)c1)c1cc(Cl)cc(Br)c1O (stereo partly drawn) | 1 | 1420 |  |
| O=C(O)C[C@H](NC(=O)CNC(=O)c1cncc(N=C2NCC(O)CN2)c1)c1cc(Cl)cc(Br)c1O (stereo partly drawn) | 0.4 |  |  |
